From patent US20230226207A1, “Camptothecin Drug Having High-Stability Hydrophilic Connecting Unit And Conjugate Thereof” (SICHUAN BAILI PHARM CO., LTD, priority 2020, published 2023)

Key:
[1] = test system: N87 (human gastric cancer cells); test: In vitro proliferation inhibition of N87 tumor cells (MTS); type: cell-based; details: 120 h, 5 days
Experimental: (§1) 1) Experimental Materials • Cells: from the cell bank of the Chinese Academy of Sciences; • Tumor cell culture medium: Gibco; • FBS: BIOWEST;
(§2) 2) Preparation of Medium • Growth medium (with 10% FBS, Penicillin/streptomycin (100 U/mL); • Detection medium (with 1% FBS, Penicillin/streptomycin (100 U/mL);
(§3) Turn on the UV lamp in the biological safety cabinet 30 minutes in advance, and ventilate for 3 minutes. Put the growth medium, detection medium, D-PBS and pancreatin into a 37° C. constant temperature water bath to preheat, then disinfect the surface with alcohol and put it in a biological safety cabinet. Select cells with a confluence of ˜80% (logarithmic growth phase), put them in a biological safety cabinet, aspirate the old medium, rinse with D-PBS, aspirate and discard, digest with trypsin for 2 to 3 minutes, and then add to growth Stop trypsin in the medium, and centrifuge at 500×g for 5 min. Aspirate the centrifugal supernatant, mix well with 4 mL detection medium, take 100 uL for counting (take out 50 uL cell fluid, add 50 μL 0.4% Trypan Blue Stain and mix well, and count after mixing). Plate the plate according to the number of cells set before, and plate 80 uL/well in a 96-well plate. Only add 80 uL detection medium to wells E11, F11, and G11, and add 200 uL DPBS to the edge holes to seal the edges. […]
(§4) Take out the MTS reagent after the test sample is exposed for 5 days. […] After the reaction, the 96-well plate was taken out, the OD490 nm absorbance value was detected in the microplate reader, and the data was recorded, sorted, and stored.

[2] = test system: SK-BR-3 (human breast adenocarcinoma cells); test: In vitro proliferation inhibition of SK-BR-3 tumor cells (MTS); type: cell-based; details: 120 h, SK-BR-3 cells, 5 days
Experimental: as §1, §2, §3, §4

Structure (SMILES) | IC50 [1] [µM] | IC50 [2] [µM]
CC[C@@]1(O)C(=O)OCc2c1cc1n(c2=O)Cc2c-1nc1cc(F)c(C)c3c1c2[C@@H](NC(=O)[C@H](O)C(F)(F)F)CC3 [d6] | 0.00215 | 0.239
CC[C@@]1(O)C(=O)OCc2c1cc1n(c2=O)Cc2c-1nc1cc(F)c(C)c3c1c2[C@@H](NC(=O)CO)CC3 [d1] | 0.0133 | 0.104
CC[C@@]1(O)C(=O)OCc2c1cc1n(c2=O)Cc2c-1nc1cc(F)c(C)c3c1c2[C@@H](NC(=O)[C@H](C)O)CC3 [d3] | 0.00803 | 0.183
